Assay [1] has as its system SH-SY5Y. Briefly: Neuroprotective activity against H2O2-induced neuronal cell death in human SH-SY5Y cells assessed as cell viability at 50 uM pretreated for 12 hrs followed by H2O2 addition measured after 3 hrs by MTT assay relative to control. The format is functional. To be noted: read-out: Activity. A general note: Tetrazolium dyes change colour on reduction, which living cells bring about.

Assay [2] deals with SH-SY5Y. Nature of the assay: Neuroprotective activity against H2O2-induced neuronal cell death in human SH-SY5Y cells assessed as cell viability at 25 uM pretreated for 12 hrs followed by H2O2 addition measured after 3 hrs by MTT assay relative to control. It is filed as functional. Particulars: read-out: Activity.
In a further assay the test system is A549. Nature of the assay: Cytotoxicity against human A549 cells after 48 hrs by MTT assay. The format is cell-based. Particulars: A549, 48 h.
A further assay deals with HepG2. Briefly: Cytotoxicity against human HepG2 cells after 48 hrs by MTT assay. It is filed as cell-based. To be noted: HepG2, 48 h.
A short description of assay [3]: Cytotoxicity against human Hep3B cells after 48 hrs by MTT assay. It is filed as cell-based, Hep 3B2.
The test system of another assay is Bcap37. Nature of the assay: Cytotoxicity against human Bcap37 cells after 48 hrs by MTT assay. It is filed as cell-based. To be noted: Bcap37, 48 h.
The subject of a further assay is MCF7. Nature of the assay: Cytotoxicity against human MCF7 cells after 48 hrs by MTT assay. It is filed as cell-based. Particulars: MCF7, 48 h.
Assay [4] has as its system SH-SY5Y. Briefly: Neuroprotective activity against H2O2-induced neuronal cell death in human SH-SY5Y cells assessed as cell viability at 100 uM pretreated for 12 hrs followed by H2O2 addition measured after 3 hrs by MTT assay relative to control. To be noted: read-out: Activity. The format is functional.

With `CC1(C)CC[C@]23CO[C@@]4(C=C[C@@H]5[C@@]6(C)CC[C@H](O)[C@@](C)(CO)[C@@H]6CC[C@@]5(C)[C@]4(C)C[C@H]2O)[C@@H]3C1`, the viability at 50 µM in the assay with SH-SY5Y [1] is 62.4%. For the same molecule, the viability at 25 µM in the assay on SH-SY5Y [2] came out at 70%. Moreover, the IC50 was more than 80 µM in the assay with A549; 63.4 µM with HepG2; more than 80 µM in assay [3]; more than 80 µM in the assay on Bcap37; more than 80 µM with MCF7. Besides, the viability at 100 µM with SH-SY5Y [4] came out at 62.6%.
For the molecule `CO[C@H]1C=C2[C@H]3CC(C)(C)CC[C@@]3(CO)[C@H](O)C[C@]2(C)[C@@]2(C)CC[C@@H]3C(C)(C)[C@H](O[C@@H]4O[C@H](CO[C@H]5O[C@@H](CO)[C@H](O)[C@@H](O)[C@@H]5O)[C@@H](O[C@@H]5O[C@@H](C)[C@H](O)[C@@H](O)[C@H]5O)[C@H](O)[C@H]4O)CC[C@@]3(C)[C@H]12`, the viability at 50 µM with SH-SY5Y [1] was determined as 50%. Besides, the viability at 25 µM in the assay with SH-SY5Y [2] amounted to 58.4%. The IC50 in the assay with A549 was more than 80 µM; with HepG2, more than 80 µM; in assay [3], 75.7 µM; with Bcap37, more than 80 µM; in the assay with MCF7, more than 80 µM. The viability at 100 µM in the assay with SH-SY5Y [4] came out at 20.2%.
For the molecule `C[C@@H]1O[C@@H](O[C@H]2[C@H](O)[C@@H](O)[C@H](O[C@@H]3CC[C@]4(C)[C@H](CC[C@@]5(C)[C@H]4CC=C4[C@H]6CC(C)(C)CC[C@@]6(CO)[C@H](O)C[C@@]45C)C3(C)C)O[C@@H]2CO[C@H]2O[C@@H](CO)[C@H](O)[C@@H](O)[C@@H]2O)[C@H](O)[C@H](O)[C@H]1O`, the viability at 50 µM with SH-SY5Y [1] was found to be 53%. Moreover, the viability at 25 µM in the assay with SH-SY5Y [2] was found to be 51.4%. Besides, the IC50 was more than 80 µM in the assay with A549; more than 80 µM with HepG2; 37.8 µM in assay [3]; more than 80 µM with Bcap37; more than 80 µM with MCF7. Further, the viability at 100 µM in the assay with SH-SY5Y [4] was 8.66%.
In the case of `C[C@H]1O[C@@H](O[C@H]2CC[C@@]3(C)[C@@H](CC[C@]4(C)[C@@H]3[C@H](O)C=C3[C@@H]5CC(C)(C)CC[C@]5(CO)[C@@H](O)C[C@]34C)[C@]2(C)CO)[C@H](O)[C@@H](O[C@@H]2O[C@H](CO)[C@@H](O)[C@H](O)[C@H]2O)[C@H]1O`, the viability at 50 µM in the assay with SH-SY5Y [1] was 54.4%. Also, the viability at 25 µM in the assay with SH-SY5Y [2] stood at 57.5%. Moreover, the IC50 (in the assay with A549; in the assay on HepG2; in assay [3]; in the assay with Bcap37; in the assay on MCF7) was more than 80 µM each time. In addition, in the assay with SH-SY5Y [4], the viability at 100 µM turned out to be 55.6%.
Turning to `CC1(C)CC[C@@]2(CO)C(=C3C=C[C@@H]4[C@@]5(C)CC[C@H](O)[C@@](C)(CO)[C@@H]5CC[C@@]4(C)[C@]3(C)C[C@H]2O)C1`, the viability at 50 µM with SH-SY5Y [1] is 82.5%. Also, in the assay with SH-SY5Y [2], the viability at 25 µM was 83.4%. The IC50 (with A549; in the assay with HepG2; in assay [3]; with Bcap37; with MCF7) was more than 80 µM throughout. The viability at 100 µM with SH-SY5Y [4] was determined as 79.3%.

In general, IC50 refers to the midpoint of a concentration-inhibition curve.

(Values after ChEMBL document CHEMBL3792274, “Neuroprotective oleanane triterpenes from the roots of Bupleurum chinense” (Bioorg Med Chem Lett, 2016).)
